Assay results published in US20030077317A1, “Methods and compositions for enhancing the bioadhesive properties of polymers using organic excipients” (Brown University Research Foundation, priority 1996, published 2003).

Assays:
[1] = test system: everted intestine; assay: Distribution of acetaminophen in tissue compartments after incubation of everted intestine in vitro; format: in vitro ADME, rat
Procedure: An in vitro assay for quantifying bioadhesion of microspheres to intestinal tissue was used to test the hot melt microspheres made as described in Example 2 (Jacob et al., Proceed,. Intern. Symp. Control. Rel. Bioact. Mater. 22:312-313 (1995). Everted sac experiments were performed using the microsphere formulations listed above. 6 cm segments of rat jejunum flushed with phosphate buffered saline (PBS), everted and fashioned into sacs filled with PBS. Sacs were incubated with 60 mg of microspheres in 5 ml of PBS at 37° C. with end-over-end agitation. After 30 min, the sacs were removed and the unbound microspheres were collected, washed with distilled water, frozen and lyophilized for 24 hrs. The weight of unbound beads was used to determine the amount of beads bound to the intestine:
The FAPP:SAPP 92:8 18% acetaminophen microspheres were made using the hot melt method described in Example 2, and were used in everted sac experiments and the release of drug was determined to yield information on bioavailability. The release was determined by homogenizing intestinal tissue and mucosal and serosal fluids. The homogenates were centrifuged and the supernatant fluids were assayed for acetaminophen.

[2] = test system: rats; assay: Oral (stomach tube) insulin delivery in rat model, glucose tolerance after subcutaneous glucose load; format: in vivo; conditions: fed by stomach tube, by 3 hours
Procedure: The delivery of insulin after adminstration of the nanoparticles, loaded with 10% (w/w) micronized FeO, was studied in a rat model. Five 300 g fasted rats were anaesthetized with Metofane and fed the following formulations by stomach tube: Rats 1 and 2: 0.5 mL saline Rat 3: 24 I.U. insulin/0.5 mL saline (amorphous suspension) Rats 4 and 5: 50 mg FAPP/PLGA nanospheres containing 20 I.U. insulin and 10% (w/w)FeO Blood samples from the tail vein were taken as an initial baseline and rats were subsequently tested for glucose tolerance following injection of a subcutaneous glucose load, consisting of 5 mL of 5% sterile glucose solution. Tutwiler et al., Diabetes, 27:856-867 (1978). At 1, 3, 4 and 5 hours postfeeding, blood samples were again taken and plasma glucose levels were measured spectrophotometrically at 505 nm using the Trinder glucose assay.

acetaminophen in gut wall ([1]; everted intestine in vitro) | acetaminophen in mucosal fluid ([1]; everted intestine in vitro) | acetaminophen in serosal fluid ([1]; everted intestine in vitro) | mucosal/serosal ratio ([1]; everted intestine in vitro) | acetaminophen distribution, gut wall ([1]; everted sac) | acetaminophen distribution, mucosal fluid ([1]; everted sac) | acetaminophen distribution, serosal fluid ([1]; everted sac) | Compound | increase in blood glucose level over fasting baseline [2]
19 ± 7 mg/dL | 39 ± 1 mg/dL | 13 ± 1 mg/dL | 3.0 | 7.9 ± 0.9 % of total dose | 86.5 ± 1.5 % of total dose | 5.7 ± 0.9 % of total dose | CC(=O)Nc1ccc(O)cc1 [control, acetaminophen] | –
– | – | – | – | – | – | – | insulin [oral insulin solution] | 62%
